In ChEMBL document CHEMBL1201862, “PubChem BioAssay data set” (2004):
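96-well plates; 48 h exposure; 5 concentrations. Endpoints by linear interpolation between flanking doses. Not reached: highest tested concentration assigned. GI50 is the concentration that inhibits growth by half.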 Active and inactive are the calls of the source. Rule as the data show it: active = GI50 up to about 1.1 µM and inactive = higher.

Legend:
Assay in all cases: DTP human tumour cell line panel, 48 h
A549 = system: A549
CCRF-CEM = system: CCRF-CEM
COLO 205 = system: COLO 205
DU-145 = system: DU-145
EKVX = system: EKVX
HCC 2998 = system: HCC 2998
HT-29 = system: HT-29
Hs-578T = system: Hs-578T
K562 = system: K562
LOX IMVI = system: LOX IMVI
NCI-H522 = system: NCI-H522
NCI/ADR-RES = system: NCI/ADR-RES
OVCAR-3 = system: OVCAR-3
OVCAR-8 = system: OVCAR-8
SF-539 = system: SF-539
SW-620 = system: SW-620
U-251 = system: U-251
UACC-257 = system: UACC-257
UACC-62 = system: UACC-62
UO-31 = system: UO-31

Measured: GI50

CN(C)Cc1ccc(C(C)(C)C)cc1-c1cc(C(C)(C)C)ccc1CN(C)C
inactive: A549 93.5 µM | CCRF-CEM 42.7 µM | COLO 205 19.4 µM | DU-145 > 100 µM | EKVX 39.2 µM | HCC 2998 16 µM | HT-29 33 µM | Hs-578T > 100 µM | K562 27.8 µM | LOX IMVI 83.6 µM | NCI-H522 50.5 µM | NCI/ADR-RES > 100 µM | OVCAR-3 21.8 µM | OVCAR-8 > 100 µM | SF-539 > 100 µM | SW-620 > 100 µM | U-251 42.7 µM | UACC-257 21.6 µM | UACC-62 > 100 µM | UO-31 42.7 µM

O=[N+]([O-])c1ccc(Sc2c3ccccc3nc3ccccc23)cn1
inactive: A549 > 100 µM | CCRF-CEM 2.39 µM | COLO 205 3.36 µM | DU-145 13.5 µM | EKVX > 57.4 µM | HCC 2998 45.6 µM | HT-29 9.02 µM | Hs-578T 18 µM | K562 2.49 µM | LOX IMVI 13 µM | NCI-H522 4.08 µM | NCI/ADR-RES 39.5 µM | OVCAR-3 8.11 µM | OVCAR-8 15.3 µM | SF-539 8.77 µM | SW-620 3.88 µM | U-251 > 44.2 µM | UACC-257 15.5 µM | UACC-62 18.7 µM | UO-31 15.3 µM
